According to US5620676A, “Biologically active ATP analogs” (priority 1995, dated 1997):
“Also recorded” adds a separate entry of the source. Like-named read-outs stand apart in the source and are kept apart here.

How the values were obtained:
[1] = molecular target: T1, P2X receptor (urinary bladder) (Cavia porcellus, UniProt A0A286XVA9); experiment: Contraction of guinea pig isolated urinary bladder detrussor muscle; conditions: guinea pig urinary bladder
T1 construct: guinea pig isolated urinary bladder detrussor muscle; from tissue; host or cells: guinea pig isolated urinary bladder detrusor muscle

[2] = molecular target: T2, P2X receptor (saphenous artery) (Oryctolagus cuniculus, UniProt G1U3D6); experiment: Contraction of rabbit saphenous artery; conditions: for activation at 10 µM: read-out: response at 10 μM relative to the contraction produced by 1 μM α,MeATP, saph. artery
T2 construct: and rabbit saphenous artery; from tissue; host or cells: rabbit saphenous artery
T2 sequence (G1U3D6 1-399): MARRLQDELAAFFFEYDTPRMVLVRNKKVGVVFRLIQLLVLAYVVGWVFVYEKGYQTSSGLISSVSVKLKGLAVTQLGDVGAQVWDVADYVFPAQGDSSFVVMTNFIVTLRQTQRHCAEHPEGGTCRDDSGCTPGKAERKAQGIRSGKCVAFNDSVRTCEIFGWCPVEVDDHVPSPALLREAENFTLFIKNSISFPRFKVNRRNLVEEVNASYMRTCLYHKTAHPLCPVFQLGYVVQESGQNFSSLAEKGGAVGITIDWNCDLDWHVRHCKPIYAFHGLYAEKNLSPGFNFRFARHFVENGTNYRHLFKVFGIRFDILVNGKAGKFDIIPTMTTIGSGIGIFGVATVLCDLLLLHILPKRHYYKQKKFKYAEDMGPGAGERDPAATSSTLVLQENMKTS
Source text: (§1) Muscular relaxation/contraction: Relaxant responses mediated via P2Y receptors were examined in guinea pig taenia coli, rabbit aorta, and rabbit mesenteric artery, as described by Hoyle et al. (Br. J. Pharmacol., 107, 367-374 (1992a)), Burnstock et al., (Br. J. Pharmacol., 90, 383-391 (1987a)), and Rubino et al., (Eur. J. Pharmacol., 212, 237-240 (1992)). Contractile responses mediated via P2X receptors were examined in the guinea pig urinary bladder and vas deferens, and rabbit saphenous artery, also using standard methods (see Hoyle et al., supra., 1992; Hoyle et al., Br. J. Pharmacol., 99, 617-621 (1990); and Burnstock et al., Br. J. Pharmacol., 90, 111-120 (1987b)).
^c For the saphenous artery, the percentages in brackets are response
at 10 μM relative to the contraction produced by 1 μM α,MeATP
ATP in this assay is very weak (EC50 =
1.78 mM). The highest concentrations of the analogues tested were 3-30

[3] = molecular target: T3, P2Y receptor (taenia coli) (Cavia porcellus, UniProt P59902); experiment: Relaxation of carbachol-contracted guinea pig taenia coli; conditions: for activity/potency in words, taenia coli: guinea pig taenia coli
T3 construct: Relaxant responses mediated via P2Y receptors were examined in guinea pig taenia coli; from tissue; host or cells: guinea pig taenia coli (carbachol-contracted)
Source text: as §1
Muscular relaxation assays were performed as recited in Example 3. […] All curves are the mean of two determinations except for 5'-ATP (n=38), 2-hexylthio-ATP (n=4), 2-(5-hexenyl)thio-ATP (n=3), and 2-(2-4-nitrophenylethyl)thio-AMP (n=5). […] The pD2 value for 2-methylthio-ATP is 8.0±0.15, as reported by Hoyle et al., in Receptor Data for Biological Experiments, (H. N. Doods and J. C. A. Van Meel, eds., 1992b) at pp. 54-61.
(§2) Phospholipase C activity and muscle relaxation/contraction effects were assessed using the methods recited in Example 3. In FIGS. 10-12, which present the result of assays of phospholipase C activity in turkey erythrocyte membranes, the x-axis is marked in units of the log of the molar concentration of the putative P2Y receptor agonist tested and the y-axis is marked in units of the percentage of maximum production of [^3 H]-inositol phosphate generated. In FIG. 13, the x-axis is marked in units of the negative log of the molar concentration of applied putative P2Y receptor agonists and the y-axis is marked in units of the percentage relaxation of the 50 nM carbachol-induced contraction of guinea pig taenia coli. In FIG. 14, the x-axis is also marked in units of the negative log of the molar concentration of applied putative P2Y receptor agonists and the y-axis is marked in units of the percentage relaxation of the 1 μM noradrenalin-induced contraction of rabbit aorta endothelium. In FIGS. 15-16, the x-axis is marked in units of the negative log of the molar concentration of applied putative p^2X receptor agonists and the y-axis is marked in units of the percentage contraction relative to a standard dose of KCl (i.e., 60 mM), as assessed in guinea pig isolated urinary bladder detrussor muscle (FIG. 15) and guinea pig isolated vas deferens (FIG. 16).

[4] = system: P2Y receptor (mesenteric artery); experiment: Relaxation of rabbit mesenteric artery
[5] = molecular target: T4, P2Y receptor (turkey erythrocyte membranes) (Meleagris gallopavo, UniProt P49652); experiment: Stimulation of phospholipase C (inositol phosphate formation) in turkey erythrocyte membranes; format: biochemical; conditions: turkey erythrocyte membranes
T4 construct: from tissue; host or cells: washed turkey erythrocytes, ghosts prepared by hypotonic lysis
Description: Phospholipase C activity: Stimulation of inositol phosphate formation by compounds of the present invention was measured in turkey erythrocyte membranes as described by Harden et al., supra and Boyer et al., supra. The K0.5 values were averaged from 3-8 independently determined dose-response curves for each compound. Briefly, one ml of washed turkey erythrocytes was incubated in inositol-free medium (DMEM; Gibco) with 0.5-1 mCi of 2-[^3 H]myoinositol (20 Ci/mmol; American Radiolabeled Chemicals Inc., St. Louis, Mo.)for 18-24 h in a humidified atmosphere of 95% air 5% CO2 at 37° C. Erythrocyte ghosts were prepared by rapid lysis in hypotonic buffer (5 mM sodium phosphate, pH 7.4, 5 mM MgCl2, 1 mM EGTA) as described by Boyer et al., supra. Phospholipase C activity was measured in 25 μl of [^3 H]inositol-labeled ghosts (≈175 μg of protein, 200-500,000 cpm/assay) in a medium containing 424 μM CaC12, 0.91 mM MgSO4, 2 mM EGTA, 115 mM KCl, 5 mM KH2 PO4, and 10 mM Hepes, pH 7.0. Assay (100 μl or 200 μl final volume) contained 1 μM GTPγS and the indicated concentrations of nucleotide analogs. Ghosts were incubated at 30° C. for 5 min, and total [^3 H]inositol phosphates were quantitated after purification by anion exchange chromatography according to Harden et al. (supra) and Boyer et al. (supra).
as §2

[6] = molecular target: T5, P2X receptor (vas deferens) (Cavia porcellus, UniProt A0A286XVA9); experiment: Contraction of guinea pig isolated vas deferens
T5 sequence (A0A286XVA9 1-399): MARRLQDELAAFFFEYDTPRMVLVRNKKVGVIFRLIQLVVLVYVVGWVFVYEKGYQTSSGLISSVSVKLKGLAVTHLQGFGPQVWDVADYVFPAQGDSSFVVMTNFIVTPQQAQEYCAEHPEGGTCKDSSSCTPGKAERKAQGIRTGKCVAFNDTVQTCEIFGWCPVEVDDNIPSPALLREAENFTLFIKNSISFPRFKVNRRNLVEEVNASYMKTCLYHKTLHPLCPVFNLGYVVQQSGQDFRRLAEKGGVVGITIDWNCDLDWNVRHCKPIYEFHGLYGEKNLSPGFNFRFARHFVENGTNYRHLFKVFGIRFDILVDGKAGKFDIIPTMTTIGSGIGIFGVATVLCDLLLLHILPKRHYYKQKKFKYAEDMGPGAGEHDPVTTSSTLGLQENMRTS

[7] = system: P2Y receptor (aorta endothelium); experiment: Relaxation of noradrenalin-contracted rabbit aorta; conditions: for activity/potency/selectivity in words, aorta: rabbit aorta endothelial P2Y receptor
[8] = molecular target: T6, adenylyl cyclase linked P2Y receptor (C6 rat glioma cells) (Rattus norvegicus, UniProt Q9EPX4); experiment: Inhibition of adenylyl cyclase in C6 rat glioma cells; format: cell-based
T6 construct: endogenous in cells; host or cells: C6 rat glioma cells
Description: This example illustrates the inhibition of adenylyl cyclase activity in C6 rat glioma cells, as a function of the presence of certain ATP analogs in the medium in which the C6 cells were cultured.
Cells were labelled by incubation for 2 hours in the presence of 1 to 2 mCi of tritiated adenine/ml in the medium. Cells were washed twice with HEPES (20 mM, pH 7.5)-buffered Eagle's medium and then preincubated for 10 minutes at 37° C. with fresh medium containing 200 μM 3-isobutyl-1-methylxanthine. Agonist incubations were initiated by the simultaneous addition of 10 μM isoproterenol and various concentrations of nucleotides. The reactions were stopped after 10 minutes of aspiration of the nucleotide-containing medium and addition of 1 ml of ice-cold 5% trichloroacetic acid.

[9] = mean ± S.E.M. for at least 2 determinations, read-out: phosphatidyl inositol metabolism (K0.5, nM) erythrocyte

T3 sequence (P59902 whole entry): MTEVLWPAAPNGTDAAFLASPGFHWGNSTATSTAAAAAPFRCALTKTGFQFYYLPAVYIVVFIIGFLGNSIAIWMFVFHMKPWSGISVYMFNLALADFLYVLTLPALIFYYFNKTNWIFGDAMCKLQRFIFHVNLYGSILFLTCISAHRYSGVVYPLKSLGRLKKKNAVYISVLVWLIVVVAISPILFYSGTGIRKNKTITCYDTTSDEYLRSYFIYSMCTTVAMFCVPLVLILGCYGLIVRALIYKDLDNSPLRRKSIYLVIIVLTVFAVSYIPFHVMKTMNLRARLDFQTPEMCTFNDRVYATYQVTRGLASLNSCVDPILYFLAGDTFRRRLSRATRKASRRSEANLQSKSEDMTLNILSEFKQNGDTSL
T4 sequence (P49652 whole entry): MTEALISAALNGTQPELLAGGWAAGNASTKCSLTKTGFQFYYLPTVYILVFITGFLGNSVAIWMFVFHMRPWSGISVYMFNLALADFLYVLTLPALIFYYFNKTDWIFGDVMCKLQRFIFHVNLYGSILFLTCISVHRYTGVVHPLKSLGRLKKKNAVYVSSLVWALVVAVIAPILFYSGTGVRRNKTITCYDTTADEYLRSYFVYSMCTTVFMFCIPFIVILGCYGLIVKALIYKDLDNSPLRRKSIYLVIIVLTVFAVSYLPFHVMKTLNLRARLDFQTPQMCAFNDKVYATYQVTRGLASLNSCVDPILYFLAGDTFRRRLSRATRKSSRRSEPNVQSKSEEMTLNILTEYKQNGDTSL
T6 sequence (Q9EPX4 whole entry): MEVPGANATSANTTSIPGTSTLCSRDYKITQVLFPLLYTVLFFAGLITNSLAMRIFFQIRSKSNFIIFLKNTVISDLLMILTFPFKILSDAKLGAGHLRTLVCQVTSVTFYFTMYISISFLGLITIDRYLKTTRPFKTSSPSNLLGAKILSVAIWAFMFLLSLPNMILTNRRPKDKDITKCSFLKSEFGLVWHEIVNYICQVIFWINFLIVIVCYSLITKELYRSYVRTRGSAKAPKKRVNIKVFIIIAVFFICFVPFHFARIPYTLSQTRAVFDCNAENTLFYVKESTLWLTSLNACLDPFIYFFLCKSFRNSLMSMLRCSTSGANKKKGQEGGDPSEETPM

| activity/potency in words, saphenous artery ([2]; rabbit saphenous artery) | activity/potency in words, taenia coli [3] | activity/potency in words, mesenteric artery [4] | activity/potency in words, turkey erythrocyte [5] | EC50 [5, 9] | SMILES | activity/potency in words, bladder [1] | activity/potency in words, vas deferens [6] | EC50 [3] | EC50 ([5]; read-out: K0.5) | activity/potency/selectivity in words, aorta [7] | other results |
| --- | --- | --- | --- | --- | --- | --- | --- | --- | --- | --- | --- |
| inactive in the saphenous artery | nearly inactive | inactive in the mesenteric artery | nearly inactive | > 100000 nM | Nc1ncnc2c1ncn2[C@@H]1O[C@H](COP(=O)(O)OP(=O)(O)OP(=O)(O)O)[C@@H](NC(=O)CCc2ccc(O)cc2)[C@H]1O [3'-[3-(p-Hydroxyphenyl)propionylamino]-3'-deoxyadenosine 5'-triphosphate] | more or less as potent as ATP | more or less as potent as ATP |  |  |  | activity/potency/selectivity in words, aorta ([7]; listed as 3'-[3-(4-hydroxyphenyl)-propionylamino]-3'-deoxy-ATP): considerably more potent than ATP in the aorta; activity/potency/selectivity in words, aorta ([7]; listed as 3-(p-Hydroxyphenyl-propionylamino-3'-deoxy-ATP)): a high degree of selectivity for the aortic endothelial P2Y receptor |
| inactive in the saphenous artery | nearly inactive |  | nearly inactive | > 100000 nM | CC(=O)N[C@H]1[C@@H](O)[C@H](n2cnc3c(N)ncnc32)O[C@@H]1COP(=O)(O)OP(=O)(O)OP(=O)(O)O [3'-Acetylamino-3'deoxy-ATP, 3'-Acetylamino-3'-deoxyadenosine 5'-triphosphate] | more or less as potent as ATP; also recorded: active in the vas deferens and urinary bladder | more or less as potent as ATP; also recorded: active in the vas deferens and urinary bladder |  |  | inactive at 10 μM at rabbit aorta P2Y receptors | activity/potency in words, mesenteric artery ([4]; listed as 3'-Acetylamino-3'-deoxy-ATP): more potent than ATP at rabbit mesenteric artery P2Y receptors; activity/potency in words, mesenteric artery ([4]; listed as 3'-acetylamino-3'-deoxy-ATP): the only P2Y receptor which had any appreciable activity was that in the rabbit mesenteric artery |

More lines, now with the values behind:

| SMILES | activity/potency in words, saphenous artery ([2]; rabbit saphenous artery) | activity/potency in words, taenia coli [3] | activity/potency in words, mesenteric artery [4] | activity/potency in words, turkey erythrocyte [5] | EC50 [5, 9] | activity/potency in words, bladder [1] | activity/potency in words, vas deferens [6] | EC50 [3] | EC50 ([5]; read-out: K0.5) | activity/potency/selectivity in words, aorta [7] | other results |
| --- | --- | --- | --- | --- | --- | --- | --- | --- | --- | --- | --- |
| C=CCCCCSc1nc(N)c2ncn([C@@H]3O[C@H](COP(=O)(O)OP(=O)(O)O)[C@@H](O)[C@H]3O)c2n1 [2-(5-Hexenyl)thio-ADP, 2-(5-hexenylthio)-adenosine 5'-diphosphate] |  |  |  |  | 6.8 ± 3 nM |  |  | 0.00363 µM | 4 nM |  | IC50 ([8]; C6 rat glioma cells, 10 μM isoproterenol, read-out: K0.5 values (in nM) for inhibition of adenylyl cyclase in C6 cells): 0.07 ± 0.02 nM; selectivity for the adenylyl cyclase linked receptor, in words ([8]; versus phospholipase C linked receptor): approximately the same degree of selectivity |
| O=c1[nH]c(=O)n([C@@H]2O[C@H](COP(=O)(O)OP(=O)(O)OP(=O)(O)O)[C@@H](O)[C@H]2O)cc1F [5-F-UTP, 5-Fluorouridine 5'-triphosphate] | inactive | only a weak agonist | inactive | only a weak agonist | > 100000 nM | more potent than ATP; also recorded: as potent as or more potent than ATP in the bladder | inactive; also recorded: without effect in the vas deferens |  |  | more potent than ATP | relaxation pD2, aorta ([7]; rabbit aorta, log molar units): 6.0 |
| N#CCCCCCCSc1nc(N)c2ncn([C@@H]3O[C@H](COP(=O)(O)O)[C@@H](O)[C@H]3O)c2n1 [2-(6-Cyanohexyl)thio-AMP, 2-(6-cyanohexylthio)-AMP] |  |  |  |  | 37000 nM |  |  | 39.8 µM | 37000 nM |  | activation at 10 µM ([2]; rabbit saphenous artery, 10 μM): 4.5%; relaxation pD2, mes. artery ([4]; log molar units): 6.2 |
| Nc1ncnc2c1ncn2[C@@H]1O[C@H](COP(=O)(O)OP(=O)(O)CP(=O)(O)O)[C@@H](O)[C@H]1O [β,γ-Me-ATP, β,γ-methylene-ATP, reference compound] |  | reduced activity in the taenia coli |  | nearly inactive at ≥100 μM |  | markedly enhanced activity | markedly enhanced activity |  |  |  | activation at 10 µM [2]: 89%; EC50 ([5]; phosphatidyl inositol metabolism (K0.5, nM) erythrocyte, mean ± S.E.M. for at least 2 determinations): > 100000 nM |
